Reference: patent US9796733B2, “Imidazo-pyrazine derivatives useful as soluble guanylate cyclase activators” (Merck Sharp & Dohme Corp., priority 2014, dated 2017)

Legend:
[1] = test system: Spontaneously hypertensive rats (SHR); test: Acute efficacy in spontaneously hypertensive rats (SHR): telemetry blood pressure lowering after a single oral dose; type: in vivo, rat
Source text: Acute Efficacy in Spontaneously Hypertensive Rats (SHR)
Spontaneously hypertensive rats (SHR, male, Charles River) were implanted with DSI TA11PA-C40 telemetry device (Data Sciences, Inc., St. Paul, Minn.) under isoflurane or ketamine/metomidine anesthesia. The telemetry unit catheter was inserted into the descending aorta via the femoral artery and the telemetry device was implanted subcutaneously in the left flank area. Animals were allowed to recover from surgery for 14 days before the start of any studies. Blood pressure, heart rate, and activity signals from conscious, freely moving rats were recorded continuously for 30 seconds every 10 minutes. On the day prior to administration of compound, a single oral dose of vehicle (10% transcutol/20% Cremophor/70% water) was administered to all animals to establish baseline control data. The blood pressure lowering efficacy of compound (PO) or vehicle was evaluated following a single oral gavage. Data were collected as hourly averages, and changes in blood pressure were calculated by subtracting control baseline data on an hourly basis. Animals were maintained on normal diet with a 12 hour light-dark cycle.
Maximum peak decreases of systolic blood pressure (SBP) in SHR at a particular P.O. dose (mpk milligrams per kilogram) for the following representative compounds are provided. Category A=SBP in SHRs<20 mmHg; Category B=SBP in SHRs 20-40 mmHg; Category C=SBP in SHRs>40 mmHg

sGC α1/β1 heterodimer = target: T1, sGC α1/β1 heterodimer (Homo sapiens, UniProt Q02108+Q02153); test: Cell-based sGC functional assay (CASA assay): cGMP generation in CHO-K1/sGC cells, HTRF detection; conditions: for Emax: CHO-K1, percent activation relative to standard Compound A in CHO-K1/sGC cells, read-out: % Act.; for EC50: inflection point (IP) of cGMP generation in CHO-K1/sGC cells, 4P fit, activity expressed as percentage of Compound A
T1 construct: expressed in transfected cells; host or cells: CHO-K1 (clone #7, CHO-K1/sGC)
T1 sequence (Q02108 1-690): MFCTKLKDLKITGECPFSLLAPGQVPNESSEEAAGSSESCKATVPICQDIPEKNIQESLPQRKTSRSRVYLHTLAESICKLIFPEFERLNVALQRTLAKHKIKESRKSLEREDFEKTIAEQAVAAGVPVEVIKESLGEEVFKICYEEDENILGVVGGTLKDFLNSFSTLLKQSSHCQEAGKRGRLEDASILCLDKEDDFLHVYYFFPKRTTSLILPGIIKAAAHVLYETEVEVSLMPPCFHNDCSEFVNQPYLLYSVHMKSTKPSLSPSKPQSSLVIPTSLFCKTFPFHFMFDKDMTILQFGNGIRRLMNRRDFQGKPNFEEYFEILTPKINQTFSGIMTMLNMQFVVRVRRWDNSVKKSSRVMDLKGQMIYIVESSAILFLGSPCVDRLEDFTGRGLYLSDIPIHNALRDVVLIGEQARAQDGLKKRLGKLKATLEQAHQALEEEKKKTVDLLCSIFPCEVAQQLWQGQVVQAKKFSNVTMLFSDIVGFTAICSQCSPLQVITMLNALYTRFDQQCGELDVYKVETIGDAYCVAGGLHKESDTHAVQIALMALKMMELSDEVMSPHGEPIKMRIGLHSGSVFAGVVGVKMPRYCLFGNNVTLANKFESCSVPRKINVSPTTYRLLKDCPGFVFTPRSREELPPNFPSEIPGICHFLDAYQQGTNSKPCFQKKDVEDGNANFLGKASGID
T1 sequence (Q02153 1-619): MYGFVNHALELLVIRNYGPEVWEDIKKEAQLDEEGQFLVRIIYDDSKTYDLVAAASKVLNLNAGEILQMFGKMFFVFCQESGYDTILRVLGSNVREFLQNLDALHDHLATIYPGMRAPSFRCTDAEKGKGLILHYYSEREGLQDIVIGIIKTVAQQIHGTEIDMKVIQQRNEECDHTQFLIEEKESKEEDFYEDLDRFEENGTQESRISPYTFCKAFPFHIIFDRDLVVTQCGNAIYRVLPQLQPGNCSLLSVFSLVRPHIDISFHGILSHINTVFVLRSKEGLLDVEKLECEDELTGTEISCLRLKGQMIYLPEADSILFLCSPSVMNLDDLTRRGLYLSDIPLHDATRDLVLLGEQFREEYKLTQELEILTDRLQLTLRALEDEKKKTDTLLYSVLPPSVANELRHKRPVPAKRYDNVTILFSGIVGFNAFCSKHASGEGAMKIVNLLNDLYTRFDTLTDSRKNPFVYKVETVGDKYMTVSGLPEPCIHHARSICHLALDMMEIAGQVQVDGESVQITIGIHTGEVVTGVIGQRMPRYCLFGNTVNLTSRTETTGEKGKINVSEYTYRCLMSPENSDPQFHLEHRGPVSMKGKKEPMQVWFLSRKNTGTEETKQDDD
How it was run: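 cGMP was quantified by HTRF after 1 hr, 37° C exposure of thawed CHO-K1 cells expressing sGC α1/β1 to compound, with or without 1 μM DETA-NO. IBMX (0.5 mM) blocked cGMP breakdown, and DMSO was 2.5% final. Percent of standard Compound A's maximal cGMP was fitted (4P) for inflection point.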

SMILES	Maximum peak decrease of systolic blood pressure (SBP) in SHR, Cat. ([1]; P.O. 1.0 mpk)	Emax (sGC α1/β1 heterodimer)	EC50 (sGC α1/β1 heterodimer)	Maximum peak decrease of systolic blood pressure (SBP) in SHR, Cat. ([1]; P.O. 3.0 mpk)	Maximum peak decrease of systolic blood pressure (SBP) in SHR, Cat. ([1]; P.O. 0.3 mpk)
CCCc1nc(-c2nc(N)c3c(n2)NC(=O)C3(C)c2ccc(C(F)(F)F)cc2)cn2ccnc12 (stereo not drawn) [Example 131B, 4-amino-5-methyl-2-(8-propylimidazo[1,2-a]pyrazin-6-yl)-5-(4-(trifluoromethyl)phenyl)-5H-pyrrolo[2,3-d]pyrimidin-6(7H)-one]	B (Category B=SBP in SHRs 20-40 mmHg)	88%	178 nM		
CCC1(C2CC2)C(=O)Nc2nc(-c3cn4ccnc4c(CCC(F)(F)C(F)(F)F)n3)nc(N)c21 (stereo not drawn) [Example 86B, 4-amino-5-cyclopropyl-5-ethyl-2-(8-(3,3,4,4,4-pentafluorobutyl)imidazo [1,2-a]pyrazin-6-yl)-5H-pyrrolo[2,3-d]pyrimidin-6(7H)-one]		102%	201 nM	A (Category A=SBP in SHRs<20 mmHg)	
CC1(c2ccc(OC(F)F)cn2)C(=O)Nc2nc(-c3cn4ccnc4c(CCCC(F)(F)F)n3)nc(N)c21 (stereo not drawn) [Example 214A, 4-amino-5-(5-(difluoromethoxy)pyridin-2-yl)-5-methyl-2-(8-(4,4,4-trifluorobutyl)imidazo[1,2-a]pyrazin-6-yl)-5H-pyrrolo[2,3-d]pyrimidin-6(7H)-one]	B (Category B=SBP in SHRs 20-40 mmHg)	92%	247 nM		
CC(C)Cc1nc(-c2nc(N)c3c(n2)NC(=O)C3(C)c2ccc(Cl)cc2)cn2ccnc12 (stereo not drawn) [Example 20A, 4-amino-5-(4-chlorophenyl)-2-(8-isobutylimidazo[1,2-a]pyrazin-6-yl)-5-methyl-5H-pyrrolo[2,3-d]pyrimidin-6(7H)-one]	C (Category C=SBP in SHRs>40 mmHg)	108%	231 nM		
CCCCc1nc(-c2nc(N)c3c(n2)NC(=O)C3(C)c2ccc(F)cc2)cn2ccnc12 (stereo not drawn) [Example 8A, 4-amino-2-(8-butylimidazo[1,2-a]pyrazin-6-yl)-5-(4-fluorophenyl)-5-methyl-5H-pyrrolo[2,3-d]pyrimidin-6(7H)-one]		137%	45 nM		C (Category C=SBP in SHRs>40 mmHg)
CC1(c2ccc(C(F)(F)F)cc2)C(=O)Nc2nc(-c3cn4ccnc4cn3)nc(N)c21 (stereo not drawn) [Example 143B, 4-amino-2-(imidazo[1,2-a]pyrazin-6-yl)-5-methyl-5-(4-(trifluoromethyl)phenyl)-5H-pyrrolo[2,3-d]pyrimidin-6(7H)-one]		78%	252 nM	B (Category B=SBP in SHRs 20-40 mmHg)	
CCC1(c2ccc(Cl)cc2)C(=O)Nc2nc(-c3cn4ccnc4c(CCC(F)(F)C(F)(F)F)n3)nc(N)c21 (stereo not drawn) [Example 247B, 4-amino-5-(4-chlorophenyl)-5-ethyl-2-(8-(3,3,4,4,4-pentafluorobutyl)imidazo [1,2-a]pyrazin-6-yl)-5H-pyrrolo[2,3-d]pyrimidin-6(7H)-one]		117%	152 nM		A (Category A=SBP in SHRs<20 mmHg)
CC1(c2ccc(F)cc2)C(=O)Nc2nc(-c3cn4ccnc4c(CC4CCC4)n3)nc(N)c21 (stereo not drawn) [Example 114A, 4-amino-2-(8-(cyclobutylmethyl)imidazo [1,2-a]pyrazin-6-yl)-5-(4-fluorophenyl)-5-methyl-5H-pyrrolo[2,3-d]pyrimidin-6(7H)-one]		94%	57 nM		C (Category C=SBP in SHRs>40 mmHg)
Nc1nc(-c2cn3ccnc3c(CCC(F)(F)F)n2)nc2c1C(c1ccc(Cl)c(F)c1)(C1CC1)C(=O)N2 (stereo not drawn) [Example 190A, 4-amino-5-(4-chloro-3-fluorophenyl)-5-cyclopropyl-2-(8-(3,3,3-trifluoropropyl)imidazo[1,2-a]pyrazin-6-yl)-5H-pyrrolo[2,3-d]pyrimidin-6(7H)-one]		90%	114 nM	C (Category C=SBP in SHRs>40 mmHg)	
Nc1nc(-c2cn3ccnc3c(CCCC(F)(F)F)n2)nc2c1C(c1cncc(F)c1)(C1CC1)C(=O)N2 (stereo not drawn) [Example 356B, 4-amino-5-cyclopropyl-5-(5-fluoropyridin-3-yl)-2-(8-(4,4,4-trifluorobutyl)imidazo[1,2-a]pyrazin-6-yl)-5H-pyrrolo[2,3-d]pyrimidin-6(7H)-one]		108%	487 nM	A (Category A=SBP in SHRs<20 mmHg)	
CC1(c2ncccn2)C(=O)Nc2nc(-c3cn4ccnc4c(CCC(F)(F)C(F)(F)F)n3)nc(N)c21 (stereo not drawn) [Example 220B, 4-amino-5-methyl-2-(8-(3,3,4,4,4-pentafluorobutyl)imidazo [1,2-a]pyrazin-6-yl)-5-(pyrimidin-2-yl)-5H-pyrrolo[2,3-d]pyrimidin-6(7H)-one]		100%	409 nM	A (Category A=SBP in SHRs<20 mmHg)	
CC1(c2ccc(Cl)cc2)C(=O)Nc2nc(-c3cn4ccnc4c(C4CCC4)n3)nc(N)c21 (stereo not drawn) [Example 15A, 4-amino-5-(4-chlorophenyl)-2-(8-cyclobutylimidazo[1,2-a]pyrazin-6-yl)-5-methyl-5H-pyrrolo[2,3-d]pyrimidin-6(7H)-one]	C (Category C=SBP in SHRs>40 mmHg)	119%	82 nM		
CCCc1nc(-c2nc(N)c3c(n2)NC(=O)C3(C)c2ccc(Cl)cn2)cn2ccnc12 (stereo not drawn) [Example 129A, 4-amino-5-(5-chloropyridin-2-yl)-5-methyl-2-(8-propylimidazo[1,2-a]pyrazin-6-yl)-5H-pyrrolo[2,3-d]pyrimidin-6(7H)-one]	B (Category B=SBP in SHRs 20-40 mmHg)	94%	107 nM		
CC1(c2ccc(F)c(F)c2)C(=O)Nc2nc(-c3cn4ccnc4c(CCC(F)(F)F)n3)nc(N)c21 (stereo not drawn) [Example 183B, 4-amino-5-(3,4-difluorophenyl)-5-methyl-2-(8-(3,3,3-trifluoropropyl)imidazo[1,2-a]pyrazin-6-yl)-5H-pyrrolo[2,3-d]pyrimidin-6(7H)-one]	B (Category B=SBP in SHRs 20-40 mmHg)	113%	61 nM		
CC1(c2ccc(F)cc2)C(=O)Nc2nc(-c3cn4ccnc4c(CCC(F)(F)C(F)(F)F)n3)nc(N)c21 (single isomer, unassigned) [Example 222B, 4-amino-5-(4-fluorophenyl)-5-methyl-2-(8-(3,3,4,4,4-pentafluorobutyl)imidazo [1,2-a]pyrazin-6-yl)-5H-pyrrolo[2,3-d]pyrimidin-6(7H)-one]		121%	578 nM	B (Category B=SBP in SHRs 20-40 mmHg)	
